Common to all, as to type: functional
Experiment [1] has as its target Mitogen-activated protein kinase kinase kinase kinase 4 (Homo sapiens, UniProt O95819).
Experiment [2] has as its target Mitogen-activated protein kinase 14 (Homo sapiens, UniProt Q16539).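 Also: part of a kinome-wide panel, MAPK14 entry.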
Experiment [3] concerns the target Serine/threonine-protein kinase pim-1 (Homo sapiens, UniProt P11309).
The target in experiment [4] is T1, Mitogen-activated protein kinase kinase kinase kinase 2 (Homo sapiens, UniProt Q12851).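 Also: measured as one member of a kinome-wide kinase panel, with MAP4K2 as the panel entry.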
T1 sequence (Q12851 whole entry): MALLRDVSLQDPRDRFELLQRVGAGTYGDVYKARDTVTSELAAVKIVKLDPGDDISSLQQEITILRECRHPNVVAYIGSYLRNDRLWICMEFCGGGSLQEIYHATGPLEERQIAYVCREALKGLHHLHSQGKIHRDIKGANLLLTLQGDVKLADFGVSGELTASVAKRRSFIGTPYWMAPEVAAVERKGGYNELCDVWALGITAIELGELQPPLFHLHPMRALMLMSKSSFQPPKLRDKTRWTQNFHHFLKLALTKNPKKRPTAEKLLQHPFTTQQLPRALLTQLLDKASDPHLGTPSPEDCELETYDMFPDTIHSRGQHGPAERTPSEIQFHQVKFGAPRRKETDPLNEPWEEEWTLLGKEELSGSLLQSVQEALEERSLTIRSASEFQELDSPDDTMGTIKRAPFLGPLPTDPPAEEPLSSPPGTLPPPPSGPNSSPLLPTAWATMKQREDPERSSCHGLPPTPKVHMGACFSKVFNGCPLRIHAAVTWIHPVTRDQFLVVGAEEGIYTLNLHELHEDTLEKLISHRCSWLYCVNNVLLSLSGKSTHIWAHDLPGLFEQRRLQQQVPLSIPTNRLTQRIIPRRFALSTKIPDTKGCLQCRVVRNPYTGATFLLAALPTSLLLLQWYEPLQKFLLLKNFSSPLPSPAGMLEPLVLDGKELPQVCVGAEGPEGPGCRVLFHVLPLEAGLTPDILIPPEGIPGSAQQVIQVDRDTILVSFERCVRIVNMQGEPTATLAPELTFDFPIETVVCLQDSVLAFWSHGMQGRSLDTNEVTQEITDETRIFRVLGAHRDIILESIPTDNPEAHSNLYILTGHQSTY

The target of experiment [5] is Casein kinase I isoform alpha (Homo sapiens, UniProt P48729).
Chain of Casein kinase I isoform alpha (P48729 whole entry, canonical isoform): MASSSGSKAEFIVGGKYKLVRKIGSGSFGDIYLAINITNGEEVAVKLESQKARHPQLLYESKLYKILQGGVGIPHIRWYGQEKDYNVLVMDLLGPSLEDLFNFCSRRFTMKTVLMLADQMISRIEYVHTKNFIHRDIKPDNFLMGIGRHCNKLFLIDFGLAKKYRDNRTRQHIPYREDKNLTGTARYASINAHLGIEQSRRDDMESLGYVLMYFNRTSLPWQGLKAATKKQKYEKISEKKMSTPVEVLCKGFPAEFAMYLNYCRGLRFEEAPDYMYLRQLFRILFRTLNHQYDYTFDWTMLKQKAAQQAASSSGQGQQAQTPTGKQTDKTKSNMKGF
The target of experiment [6] is Dual specificity tyrosine-phosphorylation-regulated kinase 1A (Homo sapiens, UniProt Q13627).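 Also: measured against DYRK1A as one member of a broad kinome profiling panel.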
Experiment [7] has as its target Vascular endothelial growth factor receptor 2 (Homo sapiens, UniProt P35968).
Experiment [8] has as its target T2, Tyrosine-protein kinase JAK3 (Homo sapiens, UniProt P52333).
T2 sequence (P52333 whole entry): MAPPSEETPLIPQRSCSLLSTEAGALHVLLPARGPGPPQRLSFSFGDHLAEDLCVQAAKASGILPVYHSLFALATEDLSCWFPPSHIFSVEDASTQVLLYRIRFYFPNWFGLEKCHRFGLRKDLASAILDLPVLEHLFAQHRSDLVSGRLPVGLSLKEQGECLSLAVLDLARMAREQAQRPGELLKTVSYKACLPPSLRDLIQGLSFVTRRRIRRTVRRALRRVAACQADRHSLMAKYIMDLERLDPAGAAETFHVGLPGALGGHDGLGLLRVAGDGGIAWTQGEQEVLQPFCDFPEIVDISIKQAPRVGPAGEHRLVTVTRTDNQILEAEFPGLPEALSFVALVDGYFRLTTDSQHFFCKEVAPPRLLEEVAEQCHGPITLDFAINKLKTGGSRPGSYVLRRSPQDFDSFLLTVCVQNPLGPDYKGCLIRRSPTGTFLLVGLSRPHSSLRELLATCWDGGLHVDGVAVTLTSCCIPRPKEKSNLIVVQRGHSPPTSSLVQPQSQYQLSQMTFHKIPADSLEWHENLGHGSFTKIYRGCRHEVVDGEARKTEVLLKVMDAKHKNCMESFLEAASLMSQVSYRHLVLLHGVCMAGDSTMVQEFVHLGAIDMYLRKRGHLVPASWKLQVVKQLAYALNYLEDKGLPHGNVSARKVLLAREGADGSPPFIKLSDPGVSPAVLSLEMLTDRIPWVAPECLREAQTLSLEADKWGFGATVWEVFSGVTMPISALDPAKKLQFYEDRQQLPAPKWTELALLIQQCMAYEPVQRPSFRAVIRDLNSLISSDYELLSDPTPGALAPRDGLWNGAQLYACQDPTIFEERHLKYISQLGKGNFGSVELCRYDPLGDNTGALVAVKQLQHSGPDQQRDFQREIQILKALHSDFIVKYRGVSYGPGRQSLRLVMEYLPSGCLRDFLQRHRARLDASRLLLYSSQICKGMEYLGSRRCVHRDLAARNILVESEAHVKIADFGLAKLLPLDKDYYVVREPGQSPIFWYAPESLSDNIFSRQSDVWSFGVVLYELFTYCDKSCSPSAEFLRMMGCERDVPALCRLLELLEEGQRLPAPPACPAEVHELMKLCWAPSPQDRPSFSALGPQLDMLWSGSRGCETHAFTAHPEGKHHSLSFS

Experiment [9] concerns the target Tyrosine-protein kinase BTK (Homo sapiens, UniProt Q06187).
Experiment [10] has as its target Cyclin-dependent kinase 5 (Homo sapiens, UniProt Q00535).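 Also: CDK5 measured as one member of a kinase profiling panel.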
Experiment [11] concerns the target Aurora kinase B (Homo sapiens, UniProt Q96GD4).

Calls of active or inactive are those of the source.

Chain of Aurora kinase B (Q96GD4 whole entry): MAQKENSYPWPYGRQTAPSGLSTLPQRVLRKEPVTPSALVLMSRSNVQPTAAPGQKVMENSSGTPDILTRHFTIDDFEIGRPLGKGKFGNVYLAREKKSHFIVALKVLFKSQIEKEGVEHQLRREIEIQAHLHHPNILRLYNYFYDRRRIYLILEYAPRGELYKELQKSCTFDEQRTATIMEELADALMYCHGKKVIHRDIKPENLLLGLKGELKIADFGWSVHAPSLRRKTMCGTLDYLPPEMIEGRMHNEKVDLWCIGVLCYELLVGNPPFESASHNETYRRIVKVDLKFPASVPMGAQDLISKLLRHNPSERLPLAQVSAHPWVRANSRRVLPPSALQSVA
Chain of Cyclin-dependent kinase 5 (Q00535 whole entry): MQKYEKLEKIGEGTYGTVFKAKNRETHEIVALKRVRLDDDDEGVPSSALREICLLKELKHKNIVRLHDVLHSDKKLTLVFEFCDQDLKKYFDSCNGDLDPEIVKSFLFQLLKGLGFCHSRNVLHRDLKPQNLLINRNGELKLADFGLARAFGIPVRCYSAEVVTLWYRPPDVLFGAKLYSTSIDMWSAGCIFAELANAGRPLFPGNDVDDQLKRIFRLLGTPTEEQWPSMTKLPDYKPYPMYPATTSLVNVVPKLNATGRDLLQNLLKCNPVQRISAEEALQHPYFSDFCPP
Chain of Mitogen-activated protein kinase kinase kinase kinase 4 (O95819 whole entry): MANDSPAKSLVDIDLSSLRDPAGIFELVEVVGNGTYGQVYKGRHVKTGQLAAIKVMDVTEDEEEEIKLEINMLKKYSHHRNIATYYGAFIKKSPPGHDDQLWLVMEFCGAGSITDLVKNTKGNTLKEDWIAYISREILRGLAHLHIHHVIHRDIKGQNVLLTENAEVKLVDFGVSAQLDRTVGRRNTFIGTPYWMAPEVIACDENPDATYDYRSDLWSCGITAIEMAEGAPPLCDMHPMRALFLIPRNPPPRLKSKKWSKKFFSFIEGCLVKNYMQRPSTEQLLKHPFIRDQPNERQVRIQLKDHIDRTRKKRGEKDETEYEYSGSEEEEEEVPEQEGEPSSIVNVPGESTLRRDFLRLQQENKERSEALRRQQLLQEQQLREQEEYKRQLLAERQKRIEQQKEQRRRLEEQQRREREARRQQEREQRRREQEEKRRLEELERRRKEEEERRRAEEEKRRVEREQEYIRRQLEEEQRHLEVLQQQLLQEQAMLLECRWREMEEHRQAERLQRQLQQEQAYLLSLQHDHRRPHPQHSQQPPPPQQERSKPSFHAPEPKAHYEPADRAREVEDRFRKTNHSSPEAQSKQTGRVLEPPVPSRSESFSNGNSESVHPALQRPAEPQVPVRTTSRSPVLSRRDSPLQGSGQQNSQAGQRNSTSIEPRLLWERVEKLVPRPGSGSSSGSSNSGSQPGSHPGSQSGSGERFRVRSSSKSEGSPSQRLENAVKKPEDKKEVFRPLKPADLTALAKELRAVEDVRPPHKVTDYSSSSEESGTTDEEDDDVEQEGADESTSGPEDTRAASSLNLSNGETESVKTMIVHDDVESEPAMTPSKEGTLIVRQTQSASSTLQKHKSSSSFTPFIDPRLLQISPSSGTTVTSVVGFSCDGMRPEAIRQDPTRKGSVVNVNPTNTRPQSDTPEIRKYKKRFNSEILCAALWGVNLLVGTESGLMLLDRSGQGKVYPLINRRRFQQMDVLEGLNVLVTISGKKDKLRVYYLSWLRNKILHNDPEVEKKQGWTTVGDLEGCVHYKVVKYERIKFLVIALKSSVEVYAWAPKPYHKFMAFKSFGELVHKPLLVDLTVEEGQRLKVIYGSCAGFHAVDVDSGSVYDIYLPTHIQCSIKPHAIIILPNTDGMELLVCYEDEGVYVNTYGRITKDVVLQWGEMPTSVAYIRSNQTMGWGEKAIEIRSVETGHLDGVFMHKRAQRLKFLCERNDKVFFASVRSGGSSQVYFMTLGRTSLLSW
Chain of Vascular endothelial growth factor receptor 2 (P35968 whole entry): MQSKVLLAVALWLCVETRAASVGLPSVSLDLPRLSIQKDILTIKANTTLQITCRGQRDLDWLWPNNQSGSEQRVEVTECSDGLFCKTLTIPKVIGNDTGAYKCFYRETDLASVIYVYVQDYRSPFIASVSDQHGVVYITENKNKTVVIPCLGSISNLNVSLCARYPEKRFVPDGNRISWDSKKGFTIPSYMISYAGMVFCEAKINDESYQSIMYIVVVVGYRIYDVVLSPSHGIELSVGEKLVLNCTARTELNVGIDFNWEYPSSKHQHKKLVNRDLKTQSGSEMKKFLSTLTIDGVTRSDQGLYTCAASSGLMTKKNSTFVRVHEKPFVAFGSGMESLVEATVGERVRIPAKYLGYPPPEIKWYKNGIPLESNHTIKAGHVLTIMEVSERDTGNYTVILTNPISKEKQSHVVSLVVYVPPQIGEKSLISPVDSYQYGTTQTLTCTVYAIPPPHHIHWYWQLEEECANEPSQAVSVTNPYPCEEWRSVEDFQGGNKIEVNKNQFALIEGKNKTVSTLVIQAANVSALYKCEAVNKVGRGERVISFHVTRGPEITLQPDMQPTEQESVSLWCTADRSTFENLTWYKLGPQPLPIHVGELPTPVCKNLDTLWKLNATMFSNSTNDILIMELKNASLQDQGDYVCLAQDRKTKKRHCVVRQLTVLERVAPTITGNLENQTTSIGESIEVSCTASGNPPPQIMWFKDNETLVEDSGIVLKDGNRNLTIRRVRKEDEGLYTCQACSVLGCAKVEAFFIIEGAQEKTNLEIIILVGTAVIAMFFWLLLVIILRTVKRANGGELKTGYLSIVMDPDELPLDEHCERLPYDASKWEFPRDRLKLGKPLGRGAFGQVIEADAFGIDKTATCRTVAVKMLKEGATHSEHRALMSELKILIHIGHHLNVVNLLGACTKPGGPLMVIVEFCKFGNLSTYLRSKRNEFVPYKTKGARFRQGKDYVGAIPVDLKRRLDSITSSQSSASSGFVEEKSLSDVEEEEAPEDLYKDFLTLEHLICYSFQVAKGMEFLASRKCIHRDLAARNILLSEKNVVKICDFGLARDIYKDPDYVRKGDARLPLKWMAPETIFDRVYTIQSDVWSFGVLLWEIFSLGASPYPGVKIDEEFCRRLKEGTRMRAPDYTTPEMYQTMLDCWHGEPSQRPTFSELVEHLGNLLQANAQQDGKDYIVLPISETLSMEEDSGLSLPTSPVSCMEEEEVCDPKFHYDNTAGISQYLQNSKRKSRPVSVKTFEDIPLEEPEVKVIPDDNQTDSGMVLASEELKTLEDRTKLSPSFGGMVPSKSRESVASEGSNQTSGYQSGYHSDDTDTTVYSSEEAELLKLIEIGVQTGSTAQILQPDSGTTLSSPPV
Chain of Serine/threonine-protein kinase pim-1 (P11309 whole entry): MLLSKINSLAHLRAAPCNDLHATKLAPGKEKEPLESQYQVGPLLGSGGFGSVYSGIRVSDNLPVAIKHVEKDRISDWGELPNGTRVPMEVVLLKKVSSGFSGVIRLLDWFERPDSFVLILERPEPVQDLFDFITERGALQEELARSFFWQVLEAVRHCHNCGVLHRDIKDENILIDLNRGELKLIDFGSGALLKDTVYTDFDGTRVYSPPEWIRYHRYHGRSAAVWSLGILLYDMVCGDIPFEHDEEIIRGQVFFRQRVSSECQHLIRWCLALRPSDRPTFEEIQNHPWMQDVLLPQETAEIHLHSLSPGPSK
Chain of Mitogen-activated protein kinase 14 (Q16539 whole entry): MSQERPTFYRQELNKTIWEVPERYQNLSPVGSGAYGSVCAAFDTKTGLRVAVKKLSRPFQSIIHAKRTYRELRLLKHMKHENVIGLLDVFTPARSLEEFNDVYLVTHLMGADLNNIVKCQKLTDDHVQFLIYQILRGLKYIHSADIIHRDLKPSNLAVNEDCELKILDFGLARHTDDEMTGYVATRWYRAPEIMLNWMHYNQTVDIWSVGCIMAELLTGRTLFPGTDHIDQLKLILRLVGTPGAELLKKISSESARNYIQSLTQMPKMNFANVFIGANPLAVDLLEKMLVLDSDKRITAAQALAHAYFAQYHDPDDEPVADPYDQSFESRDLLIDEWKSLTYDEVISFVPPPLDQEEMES
Chain of Tyrosine-protein kinase BTK (Q06187 whole entry): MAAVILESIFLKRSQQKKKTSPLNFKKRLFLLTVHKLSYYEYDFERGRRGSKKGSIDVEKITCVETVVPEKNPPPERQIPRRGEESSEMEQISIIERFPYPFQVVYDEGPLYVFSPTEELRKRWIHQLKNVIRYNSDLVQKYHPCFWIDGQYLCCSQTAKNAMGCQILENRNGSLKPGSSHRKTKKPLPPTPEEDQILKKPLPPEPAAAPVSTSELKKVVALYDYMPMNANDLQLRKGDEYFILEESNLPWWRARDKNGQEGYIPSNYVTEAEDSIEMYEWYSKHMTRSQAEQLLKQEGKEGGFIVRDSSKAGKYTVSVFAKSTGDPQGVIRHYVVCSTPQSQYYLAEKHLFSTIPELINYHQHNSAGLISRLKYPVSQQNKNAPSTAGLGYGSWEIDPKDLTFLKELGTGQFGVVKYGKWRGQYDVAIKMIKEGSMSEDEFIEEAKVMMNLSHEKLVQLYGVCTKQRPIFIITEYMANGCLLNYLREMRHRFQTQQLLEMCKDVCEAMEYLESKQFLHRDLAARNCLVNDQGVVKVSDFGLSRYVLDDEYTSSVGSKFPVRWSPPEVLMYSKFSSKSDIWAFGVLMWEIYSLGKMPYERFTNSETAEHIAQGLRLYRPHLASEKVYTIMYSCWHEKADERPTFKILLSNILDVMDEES

Take `CCC1CC(NS(=O)(=O)C2CC2)CC1c1ncc2cnc3[nH]ccc3n12` (centres undefined): the Ki in experiment [1] was > 5.01 µM (inactive); in experiment [2], > 3.98 µM (inactive); in experiment [3], > 6.31 µM (inactive); in [4] it was > 2.51 µM (inactive); in experiment [5], > 3.98 µM (inactive); in experiment [6] it was > 2 µM (inactive). For the same compound, the inhibition constant Ki was 1 µM (active) in experiment [7], 0.00398 µM (active) in experiment [8], > 6.31 µM (inactive) in [9] and > 3.16 µM (inactive) in experiment [10].

As to `O=C(Nc1cccc(C(F)(F)F)n1)Nc1ccnc2cc(OC(F)F)ccc12`, the Ki was > 5.01 µM (inactive) in [1]; > 3.98 µM (inactive) in experiment [2]; > 6.31 µM (inactive) in [3]; > 2.51 µM (inactive) in [4]; > 3.98 µM (inactive) in [11]; > 3.98 µM (inactive) in experiment [5]. The Ki in [6] is > 2 µM (inactive); in experiment [7], > 1.58 µM (inactive); in [8] it was > 5.01 µM (inactive); in [9], > 6.31 µM (inactive); in [10] it was > 3.16 µM (inactive).

Turning to `O=c1[nH]c2cc(Br)cnc2[nH]1`, the Ki was 50.1 µM (active) in experiment [1]; 25.1 µM (active) in experiment [3]; 12.6 µM (active) in experiment [4]; 5.01 µM (active) in [11]; 6.31 µM (active) in [5]; 3.98 µM (active) in experiment [6]. The inhibition constant Ki in experiment [7] was 20 µM (active); in experiment [10], 0.0501 µM (active).

With `O=C(Nc1cccc(C(F)(F)F)n1)Nc1ccnc2cc(Cl)ccc12`, the Ki is > 3.98 µM (inactive) in experiment [2]; > 5.01 µM (inactive) in experiment [3]; > 2.51 µM (inactive) in experiment [4]; > 3.98 µM (inactive) in experiment [11]; > 3.98 µM (inactive) in experiment [5]; > 2 µM (inactive) in experiment [6]. Moreover, the Ki is > 2.51 µM (inactive) in [7], 3.98 µM (active) in [8], > 6.31 µM (inactive) in [9] and > 3.16 µM (inactive) in experiment [10].

As usually defined, the Ki is the equilibrium dissociation constant of an inhibitor or competing ligand from its target.

These data come from ChEMBL document CHEMBL1201862, “PubChem BioAssay data set” (2004).
